The results in this text go back to patent US11667649B2, “Heteroaromatic macrocyclic ether chemotherapeutic agents” (Nuvalent, Inc., priority 2020, dated 2023).

This test deals with TPM3-NTRK1-wt IC50 / primary target (e.g. CD74-ROS1-wt) IC50, Ba/F3 cells. The experiment in a line: Cell assay TRKA selectivity (TRKA potency divided by primary target potency). The format is cell-based. The note with it: for TPM3-NTRK1-wt/EML4-ALK-L1196M-G1202R: TRKA selectivity ratio: TPM3-NTRK1-wt IC50 / EML4-ALK-L1196M-G1202R IC50, Ba/F3 cells; for TPM3-NTRK1-wt/CD74-ROS1-G2032R: TRKA selectivity ratio: TPM3-NTRK1-wt IC50 / CD74-ROS1-G2032R IC50, Ba/F3 cells; for TPM3-NTRK1-wt/CD74-ROS1-wt: TRKA selectivity ratio: TPM3-NTRK1-wt IC50 / CD74-ROS1-wt IC50, Ba/F3 cells; for TPM3-NTRK1-wt/EML4-ALK-wt: TRKA selectivity ratio: TPM3-NTRK1-wt IC50 / EML4-ALK-wt IC50, Ba/F3 cells. A digest of the protocol:
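IL-3-independent Ba/F3 lines stably expressing TPM3-TRKA or the primary fusion (e.g. CD74-ROS1 wt) were exposed to 3-fold compound dilutions for 72 h. Viability was read by CellTiter-Glo luminescence, with IC50 from four-parameter logistic fit. Selectivity is TPM3-NTRK1 IC50 divided by primary-target IC50, binned A (>30-fold) to D (<1).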

Structures are written as SMILES.

With `CCn1nc(C#N)c2c1-c1cnc(N)c(c1)O[C@H](C)c1cc(F)ccc1-c1nn(C)cc1C2` [Example 156, (19R)-22-amino-3-ethyl-16-fluoro-10,19-dimethyl-20-oxa-3,4,10,11,23-pentaazapentacyclo[19.3.1.0^2,^6.0^8,^12.0^13,^18]pentacosa-1(24),2(6),4,8,11,13,15,17,21(25),22-decaene-5-carbonitrile], the TPM3-NTRK1-wt/EML4-ALK-L1196M-G1202R result is “C (bin C for moderate selectivity, ratio≥1)”.

As to `CCn1ncc2c1-c1cnc(N)c(c1)O[C@H](C)c1cc(F)ccc1-c1nn(C)c(OC)c1C2` [Example 157, (19R)-3-ethyl-16-fluoro-9-methoxy-10,19-dimethyl-20-oxa-3,4,10,11,23-pentaazapentacyclo[19.3.1.0^2,^6.0^8,^12.0^13,^18]pentacosa-1(24),2(6),4,8,11,13,15,17,21(25),22-decaen-22-amine], the TPM3-NTRK1-wt/CD74-ROS1-G2032R entry was “A (bin A for very high selectivity, ratio>30-fold)”; the TPM3-NTRK1-wt/CD74-ROS1-wt result is listed as “A (bin A for very high selectivity, ratio>30-fold)”; the TPM3-NTRK1-wt/EML4-ALK-L1196M-G1202R result is recorded as “C (bin C for moderate selectivity, ratio≥1)”; the TPM3-NTRK1-wt/EML4-ALK-wt result was “A (bin A for very high selectivity, ratio>30-fold)”.

With `CCc1nn(CC)c2c1Cc1cn(C)nc1-c1ccc(F)cc1[C@@H](C)Oc1cc-2cnc1N` [Example 158, (19R)-3,5-diethyl-16-fluoro-10,19-dimethyl-20-oxa-3,4,10,11,23-pentaazapentacyclo[19.3.1.0^2,^6.0^8,^12.0^13,^18]pentacosa-1(24),2(6),4,8,11,13,15,17,21(25),22-decaen-22-amine], the TPM3-NTRK1-wt/CD74-ROS1-G2032R entry was “A (bin A for very high selectivity, ratio>30-fold)”; the TPM3-NTRK1-wt/CD74-ROS1-wt entry is recorded as “A (bin A for very high selectivity, ratio>30-fold)”; the TPM3-NTRK1-wt/EML4-ALK-L1196M-G1202R result is listed as “C (bin C for moderate selectivity, ratio≥1)”; the TPM3-NTRK1-wt/EML4-ALK-wt entry is listed as “A (bin A for very high selectivity, ratio>30-fold)”.

On to `C[C@H]1Oc2cc(cnc2N)-c2c(cnn2CC2(C)CC2)Cc2cn(C)nc2-c2ccc(F)cc21` [Example 159, (19R)-16-fluoro-10,19-dimethyl-3-[(1-methylcyclopropyl)methyl]-20-oxa-3,4,10,11,23-pentaazapentacyclo[19.3.1.0^2,^6.0^8,^12.0^13,^18]pentacosa-1(24),2(6),4,8,11,13,15,17,21(25),22-decaen-22-amine], for which the TPM3-NTRK1-wt/CD74-ROS1-G2032R result is recorded as “A (bin A for very high selectivity, ratio>30-fold)”; the TPM3-NTRK1-wt/CD74-ROS1-wt result was “A (bin A for very high selectivity, ratio>30-fold)”; the TPM3-NTRK1-wt/EML4-ALK-L1196M-G1202R entry was “B (bin B for high selectivity, ratio>10-fold)”; the TPM3-NTRK1-wt/EML4-ALK-wt result was “A (bin A for very high selectivity, ratio>30-fold)”.

In the case of `C[C@H]1Oc2cc(cnc2N)-c2c(cnn2CC2CC2)Cc2cn(C(F)F)nc2-c2ccc(F)cc21` [Example 160, (19R)-3-(cyclopropylmethyl)-10-(difluoromethyl)-16-fluoro-19-methyl-20-oxa-3,4,10,11,23-pentaazapentacyclo[19.3.1.0^2,^6.0^8,^12.0^13,^18]pentacosa-1(24),2(6),4,8,11,13,15,17,21(25),22-decaen-22-amine], the TPM3-NTRK1-wt/CD74-ROS1-G2032R entry is reported as “A (bin A for very high selectivity, ratio>30-fold)”; the TPM3-NTRK1-wt/CD74-ROS1-wt result is “A (bin A for very high selectivity, ratio>30-fold)”; the TPM3-NTRK1-wt/EML4-ALK-L1196M-G1202R result is recorded as “A (bin A for very high selectivity, ratio>30-fold)”; the TPM3-NTRK1-wt/EML4-ALK-wt entry is on record as “A (bin A for very high selectivity, ratio>30-fold)”.

Regarding `CCn1ncc2c1-c1cnc(N)c(c1)O[C@H](C)c1cc(F)ccc1-c1onc(C)c1C2` [Example 161, (19R)-3-ethyl-16-fluoro-9,19-dimethyl-11,20-dioxa-3,4,10,23-tetraazapentacyclo[19.3.1.0^2,^6.0^8,^12.0^13,^18]pentacosa-1(24),2(6),4,8(12),9,13,15,17,21(25),22-decaen-22-amine], the TPM3-NTRK1-wt/CD74-ROS1-G2032R result is reported as “C (bin C for moderate selectivity, ratio≥1)”; the TPM3-NTRK1-wt/CD74-ROS1-wt entry was “C (bin C for moderate selectivity, ratio≥1)”; the TPM3-NTRK1-wt/EML4-ALK-L1196M-G1202R entry was “D (bin D for low selectivity, ratio<1)”; the TPM3-NTRK1-wt/EML4-ALK-wt entry was “C (bin C for moderate selectivity, ratio≥1)”.

With `CCc1noc2c1-c1cnc(N)c(n1)O[C@H](C)c1cc(F)ccc1-c1nn(C)cc1C2` [Example 162, (19R)-3-ethyl-16-fluoro-10,19-dimethyl-5,20-dioxa-4,10,11,23,25-pentaazapentacyclo[19.3.1.0^2,^6.0^8,^12.0^13,^18]pentacosa-1(24),2(6),3,8,11,13,15,17,21(25),22-decaen-22-amine], the TPM3-NTRK1-wt/CD74-ROS1-G2032R result is “B (bin B for high selectivity, ratio>10-fold)”; the TPM3-NTRK1-wt/CD74-ROS1-wt result is listed as “A (bin A for very high selectivity, ratio>30-fold)”; the TPM3-NTRK1-wt/EML4-ALK-L1196M-G1202R result is recorded as “C (bin C for moderate selectivity, ratio≥1)”; the TPM3-NTRK1-wt/EML4-ALK-wt result is given as “A (bin A for very high selectivity, ratio>30-fold)”.

As to `CCn1ncc2c1-c1cnc(N)c(n1)OC(C)c1cc(F)ccc1-c1nccn1C2` (stereo not drawn) [Example 163, 3-ethyl-16-fluoro-19-methyl-20-oxa-3,4,8,11,23,25-hexaazapentacyclo[19.3.1.0^2,^6.0^8,^12.0^13,^18]pentacosa-1(24),2(6),4,9,11,13,15,17,21(25),22-decaen-22-amine], the TPM3-NTRK1-wt/CD74-ROS1-G2032R entry is “A (bin A for very high selectivity, ratio>30-fold)”; the TPM3-NTRK1-wt/CD74-ROS1-wt result is “A (bin A for very high selectivity, ratio>30-fold)”; the TPM3-NTRK1-wt/EML4-ALK-L1196M-G1202R entry is recorded as “C (bin C for moderate selectivity, ratio≥1)”; the TPM3-NTRK1-wt/EML4-ALK-wt result is on record as “A (bin A for very high selectivity, ratio>30-fold)”.

For the compound `CCn1ncc2c1-c1cnc(N)c(n1)OC(C)c1cc(F)ccc1-c1c(cnn1C)C2` (stereo not drawn) [Example 164, 3-ethyl-16-fluoro-11,19-dimethyl-20-oxa-3,4,10,11,23,25-hexaazapentacyclo[19.3.1.0^2,^6.0^8,^12.0^13,^18]pentacosa-1(24),2(6),4,8(12),9,13,15,17,21(25),22-decaen-22-amine], the TPM3-NTRK1-wt/CD74-ROS1-G2032R result was “A (bin A for very high selectivity, ratio>30-fold)”; the TPM3-NTRK1-wt/EML4-ALK-L1196M-G1202R entry is on record as “C (bin C for moderate selectivity, ratio≥1)”; the TPM3-NTRK1-wt/EML4-ALK-wt result was “B (bin B for high selectivity, ratio>10-fold)”.

Regarding `CCn1ncc2c1-c1ccc(F)cc1C(C)Oc1nc(cnc1N)-c1c(cnn1C)C2` (stereo not drawn) [Example 165, 11-ethyl-16-fluoro-3,19-dimethyl-20-oxa-3,4,10,11,23,25-hexaazapentacyclo[19.3.1.0^2,^6.0^8,^12.0^13,^18]pentacosa-1(24),2(6),4,8(12),9,13,15,17,21(25),22-decaen-22-amine], the TPM3-NTRK1-wt/CD74-ROS1-G2032R result was “C (bin C for moderate selectivity, ratio≥1)”; the TPM3-NTRK1-wt/CD74-ROS1-wt entry is listed as “B (bin B for high selectivity, ratio>10-fold)”; the TPM3-NTRK1-wt/EML4-ALK-L1196M-G1202R entry is listed as “D (bin D for low selectivity, ratio<1)”; the TPM3-NTRK1-wt/EML4-ALK-wt entry was “C (bin C for moderate selectivity, ratio≥1)”.

As to `CC1Oc2cc(cnc2N)-c2c(n[nH]c2C#N)Cc2cnn(C)c2-c2ccc(F)cc21` (stereo not drawn) [Example 168, 22-amino-16-fluoro-11,19-dimethyl-20-oxa-4,5,10,11,23-pentaazapentacyclo[19.3.1.0^2,^6.0^8,^12.0^13,^18]pentacosa-1(24),2,5,8(12),9,13,15,17,21(25),22-decaene-3-carbonitrile], the TPM3-NTRK1-wt/CD74-ROS1-G2032R result is recorded as “A (bin A for very high selectivity, ratio>30-fold)”; the TPM3-NTRK1-wt/CD74-ROS1-wt result is reported as “A (bin A for very high selectivity, ratio>30-fold)”; the TPM3-NTRK1-wt/EML4-ALK-L1196M-G1202R result is on record as “B (bin B for high selectivity, ratio>10-fold)”; the TPM3-NTRK1-wt/EML4-ALK-wt entry was “A (bin A for very high selectivity, ratio>30-fold)”.

Regarding `C[C@H]1Oc2cc(cnc2N)-c2c(nn(C)c2C#N)Cc2ccnn2-c2ccc(F)cc21` [Example 169, (19R)-22-amino-16-fluoro-4,19-dimethyl-20-oxa-4,5,11,12,23-pentaazapentacyclo[19.3.1.0^2,^6.0^8,^12.0^13,^18]pentacosa-1(24),2,5,8,10,13,15,17,21(25),22-decaene-3-carbonitrile], the TPM3-NTRK1-wt/CD74-ROS1-G2032R entry is on record as “C (bin C for moderate selectivity, ratio≥1)”; the TPM3-NTRK1-wt/CD74-ROS1-wt entry was “A (bin A for very high selectivity, ratio>30-fold)”; the TPM3-NTRK1-wt/EML4-ALK-L1196M-G1202R result is recorded as “D (bin D for low selectivity, ratio<1)”; the TPM3-NTRK1-wt/EML4-ALK-wt entry was “A (bin A for very high selectivity, ratio>30-fold)”.

For the compound `CCc1nn(C)c2c1-c1cnc(N)c(c1)O[C@H](C)c1cc(F)ccc1-c1nn(C)cc1C2` [Example 171, (19R)-3-ethyl-16-fluoro-5,10,19-trimethyl-20-oxa-4,5,10,11,23-pentaazapentacyclo[19.3.1.0^2,^6.0^8,^12.0^13,^18]pentacosa-1(24),2(6),3,8,11,13,15,17,21(25),22-decaen-22-amine], the TPM3-NTRK1-wt/CD74-ROS1-G2032R entry is “A (bin A for very high selectivity, ratio>30-fold)”; the TPM3-NTRK1-wt/CD74-ROS1-wt result was “A (bin A for very high selectivity, ratio>30-fold)”; the TPM3-NTRK1-wt/EML4-ALK-L1196M-G1202R result was “B (bin B for high selectivity, ratio>10-fold)”; the TPM3-NTRK1-wt/EML4-ALK-wt entry is “A (bin A for very high selectivity, ratio>30-fold)”.
